Laboratory results: ChEMBL document CHEMBL5154782, “Discovery of Potent PROTACs Targeting EGFR Mutants through the Optimization of Covalent EGFR Ligands” (J Med Chem, 2022)

How the values were obtained:
[1] = biological target: von Hippel-Lindau disease tumor suppressor/Epidermal growth factor receptor (Homo sapiens, UniProt P00533+P40337); experiment: Protac activity at VHL/EGFR deletion19 mutant in human HCC827 cells assessed as induction of EGFR degradation; type: cell-based
HCC827 [2] = experiment: Antiproliferative activity against human HCC827 cells expressing EGFR deletion19 mutant assessed as inhibition of cell proliferation; type: functional, cell-based
[3] = system: von Hippel-Lindau disease tumor suppressor/Epidermal growth factor receptor (Homo sapiens), P00533+P40337 [UNDEFINED MUTATION]; experiment: Protac activity at VHL/EGFR/deletion19 in human HCC827 cells assessed as induction of EGFR degradation at 30 nM incubated for 24 hrs by Western blot analysis relative to control; type: cell-based
NCI-H1975 [4] = experiment: Antiproliferative activity against human NCI-H1975 cells expressing EGFR L858R/T790M mutant assessed as inhibition of cell proliferation incubated for 72 hrs by MTT assay; type: functional, cell-based; conditions: NCI-H1975, 72 h
HCC827 [5] = experiment: Antiproliferative activity against human HCC827 cells expressing EGFR deletion19 mutant assessed as inhibition of cell proliferation incubated for 72 hrs by MTT assay; type: functional, cell-based; conditions: HCC827, 72 h
[6] = system: von Hippel-Lindau disease tumor suppressor/Epidermal growth factor receptor (Homo sapiens), P00533+P40337 [L858R,T790M]; experiment: Protac activity at VHL/EGFR L858R/T790M mutant in human NCI-H1975 cells assessed as induction of EGFR degradation at 10 nM incubated for 24 hrs by Western blot analysis relative to control; type: cell-based
[7] = system: von Hippel-Lindau disease tumor suppressor/Epidermal growth factor receptor (Homo sapiens), P00533+P40337 [UNDEFINED MUTATION]; experiment: Protac activity at VHL/EGFR/deletion19 in human HCC827 cells assessed as induction of EGFR degradation at 3 nM incubated for 24 hrs by Western blot analysis relative to control; type: cell-based
[8] = system: von Hippel-Lindau disease tumor suppressor/Epidermal growth factor receptor (Homo sapiens), P00533+P40337 [L858R,T790M]; experiment: Protac activity at VHL/EGFR L858R/T790M mutant in human NCI-H1975 cells assessed as induction of EGFR degradation at 100 nM incubated for 24 hrs by Western blot analysis relative to control; type: cell-based
[9] = biological target: von Hippel-Lindau disease tumor suppressor/Epidermal growth factor receptor (Homo sapiens, UniProt P00533+P40337, L858R/T790M); experiment: Protac activity at VHL/EGFR L858R/T790M mutant (unknown origin) assessed as inhibition of EGFR incubated for 40 mins in presence of ATP by Kinase Glo luminescence assay; type: protein assay
HCC827 [10] = experiment: Antiproliferative activity against human […] assessed as inhibition of cell proliferation incubated for 72 hrs by MTT assay; type: functional, cell-based; conditions: HCC827, 72 h
A-431 = experiment: Antiproliferative activity against human A-431 cells expressing EGFR wildtype assessed as inhibition of cell proliferation incubated for 72 hrs by MTT assay; type: functional, cell-based; conditions: A-431, 72 h
NCI-H1975 [11] = experiment: Antiproliferative activity against human NCI-H1975 cells expressing EGFR L858R/T790M/C797S mutant assessed as reduction on cell growth incubated for 72 hrs by MTT assay; type: functional, cell-based; conditions: NCI-H1975, 72 h
PC-9 = experiment: Antiproliferative activity against human PC-9 cells expressing EGFR deletion19/T790M/C797S mutant assessed as reduction on cell growth growth incubated for 72 hrs by MTT assay; type: functional, cell-based; conditions: PC-9, 72 h
BaF3 [12] = experiment: Antiproliferative activity against mouse BaF3 cells expressing EGFR deletion19/T790M/C797S mutant assessed as reduction on cell growth incubated for 72 hrs by MTT assay; type: toxicity, cell-based; conditions: BaF3, 72 h
BaF3 [13] = experiment: Antiproliferative activity against mouse BaF3 cells expressing EGFR L858R/T790M/C797S mutant assessed as reduction on cell growth incubated for 72 hrs by MTT assay; type: toxicity, cell-based; conditions: BaF3, 72 h
[14] = biological target: von Hippel-Lindau disease tumor suppressor/Epidermal growth factor receptor (Homo sapiens, UniProt P00533+P40337, L858R); experiment: Protac activity at VHL/EGFR L858R mutant (unknown origin) assessed as inhibition of EGFR incubated for 40 mins in presence of ATP by Kinase Glo luminescence assay; type: protein assay

| Compound | IC50 (NCI-H1975 [4]) [nM] | IC50 (HCC827 [5]) [nM] | Activity [8] [%] | IC50 [9] [nM] | further results |
| --- | --- | --- | --- | --- | --- |
| Cc1ncsc1-c1ccc(CNC(=O)[C@@H]2C[C@@H](O)CN2C(=O)[C@@H](NC(=O)CCCCCCN2CCN(c3ccc(Nc4ncc5nc(Nc6ccccc6)n(C6CCCC6)c5n4)cc3)CC2)C(C)(C)C)cc1 | – | – | – | – | DC50 [1]: 0.51 nM; IC50 (HCC827 [2]): 0.76 nM |
| C=CC(=O)N1CCC[C@H](n2c(Nc3ccccc3)nc3cnc(Nc4ccc(N5CCN(CC(=O)NCCOCCOCC(=O)N[C@H](C(=O)N6C[C@H](O)C[C@H]6C(=O)NCc6ccc(-c7scnc7C)cc6)C(C)(C)C)CC5)cc4)nc32)C1 | 282 | 59.6 | < 20 | – | Activity [3]: 57%; Activity [6]: < 20%; Activity [7]: 50% |
| COc1cc(N2CCN(CC(=O)NCCCCCCC(=O)N[C@H](C(=O)N3C[C@H](O)C[C@H]3C(=O)NCc3ccc(-c4scnc4C)cc3)C(C)(C)C)CC2)c(NC(=O)/C(C#N)=C/C2CC2)cc1Nc1nccc(-c2cn(C)c3ccccc23)n1 | > 10000 | > 10000 | – | > 10000 | – |
| C=CC(=O)N1CC[C@H](n2c(Nc3ccccc3)nc3cnc(Nc4ccc(N5CCN(CCCCCCC(=O)N[C@H](C(=O)N6C[C@H](O)C[C@H]6C(=O)NCc6ccc(-c7scnc7C)cc6)C(C)(C)C)CC5)cc4)nc32)C1 | 44 | 1.66 | 79 | – | Activity [3]: 81%; IC50 (HCC827 [10]): 1.86 nM; IC50 (A-431): > 10000 nM; Activity [6]: 38%; Activity [7]: 65% |
| COc1cc(N2CCC(N3CCN(C)CC3)CC2)c(C)cc1Nc1ncc(Br)c(Nc2ccc3nccnc3c2P(C)(C)=O)n1 | – | – | – | – | IC50 (NCI-H1975 [11]): 910 nM; IC50 (PC-9): 45 nM; IC50 (BaF3 [12]): 17 nM; IC50 (BaF3 [13]): 21 nM |
| C=CC(=O)N1CCC[C@@H](n2c(Nc3ccccc3)nc3cnc(Nc4ccc(N5CCN(CCCCCCCC(=O)N[C@H](C(=O)N6C[C@H](O)C[C@H]6C(=O)N[C@@H](C)c6ccc(-c7scnc7C)cc6)C(C)(C)C)CC5)cc4)nc32)C1 | 1060 | – | – | – | IC50 (HCC827 [10]): 6.49 nM |
| C=CC(=O)N1CCC[C@H](n2c(Nc3ccccc3)nc3cnc(Nc4ccc(N5CCN(C)CC5)cc4)nc32)C1 | 12 | 0.33 | < 20 | 38 | IC50 (A-431): 7090 nM; IC50 [14]: 21 nM |
| C=CC(=O)N1CCC[C@H](n2c(Nc3ccccc3)nc3cnc(Nc4ccc(N5CCN(CC(=O)NCCCCCC(=O)N[C@H](C(=O)N6C[C@H](O)C[C@H]6C(=O)NCc6ccc(-c7scnc7C)cc6)C(C)(C)C)CC5)cc4)nc32)C1 | 250 | 36.5 | 23 | – | Activity [3]: 60%; Activity [6]: < 20%; Activity [7]: 46% |
| COc1cc(N2CCN(C)CC2)c(NC(=O)/C(C#N)=C/C(C)(C)NC(=O)CCCCCC(=O)N[C@H](C(=O)N2C[C@H](O)C[C@H]2C(=O)NCc2ccc(-c3scnc3C)cc2)C(C)(C)C)cc1Nc1nccc(-c2cn(C)c3ccccc23)n1 | 5790 | 1390 | – | > 10000 | – |
| COc1cc2ncnc(Nc3ccc(F)c(Cl)c3)c2cc1OCCCCCOCCOCCC(=O)N[C@H](C(=O)N1C[C@H](O)C[C@H]1C(=O)NCc1ccc(-c2scnc2C)cc1)C(C)(C)C | – | – | – | – | DC50 [1]: 11.7 nM |
| COc1cc(N2CCN(CC(=O)NCCCCCCC(=O)N[C@H](C(=O)N3C[C@H](O)C[C@H]3C(=O)NCc3ccc(-c4scnc4C)cc3)C(C)(C)C)CC2)c(NC(=O)/C(C#N)=C/c2ccncc2)cc1Nc1nccc(-c2cn(C)c3ccccc23)n1 | > 10000 | > 10000 | – | > 10000 | – |
